Results as given in the NIST ThermoML archive (doi:10.1021/acs.jced.8b00601).
Numbers after ± are expanded uncertainties.

Experiment: activity coefficient (dimensionless); of the first substance listed, at infinite dilution; xn = mol fraction of the nth substance listed
Details: 101.33 kPa, Liquid, Chromatography, x1 = 0

Structure (SMILES): CCCC=O [butanal] + O=S(=O)([N-]S(=O)(=O)C(F)(F)F)C(F)(F)F.O=S(=O)([N-]S(=O)(=O)C(F)(F)F)C(F)(F)F.O=S(=O)([N-]S(=O)(=O)C(F)(F)F)C(F)(F)F.c1ccc2cc(-n3cc[n+](Cc4cc(C[n+]5ccn(-c6ccc7ccccc7c6)c5)cc(C[n+]5ccn(-c6ccc7ccccc7c6)c5)c4)c3)ccc2c1
- activity coefficient (313 K): 0.425 ± 0.049
- activity coefficient (323 K): 0.415 ± 0.048
- activity coefficient (333 K): 0.396 ± 0.047
- activity coefficient (343 K): 0.324 ± 0.043

Structure (SMILES): ClC(Cl)(Cl)Cl [tetrachloromethane] + O=S(=O)([N-]S(=O)(=O)C(F)(F)F)C(F)(F)F.O=S(=O)([N-]S(=O)(=O)C(F)(F)F)C(F)(F)F.O=S(=O)([N-]S(=O)(=O)C(F)(F)F)C(F)(F)F.c1ccc2cc(-n3cc[n+](Cc4cc(C[n+]5ccn(-c6ccc7ccccc7c6)c5)cc(C[n+]5ccn(-c6ccc7ccccc7c6)c5)c4)c3)ccc2c1
- activity coefficient (313 K): 4.72 ± 0.51
- activity coefficient (323 K): 4.27 ± 0.47
- activity coefficient (333 K): 3.29 ± 0.38
- activity coefficient (343 K): 2.6 ± 0.31

Structure (SMILES): Cc1ccccc1 [toluene] + O=S(=O)([N-]S(=O)(=O)C(F)(F)F)C(F)(F)F.O=S(=O)([N-]S(=O)(=O)C(F)(F)F)C(F)(F)F.O=S(=O)([N-]S(=O)(=O)C(F)(F)F)C(F)(F)F.c1ccc2cc(-n3cc[n+](Cc4cc(C[n+]5ccn(-c6ccc7ccccc7c6)c5)cc(C[n+]5ccn(-c6ccc7ccccc7c6)c5)c4)c3)ccc2c1
- activity coefficient (313 K): 3.82 ± 0.43
- activity coefficient (323 K): 3.05 ± 0.35
- activity coefficient (333 K): 2.42 ± 0.29
- activity coefficient (343 K): 1.69 ± 0.23

Structure (SMILES): c1ccncc1 [pyridine] + O=S(=O)([N-]S(=O)(=O)C(F)(F)F)C(F)(F)F.O=S(=O)([N-]S(=O)(=O)C(F)(F)F)C(F)(F)F.O=S(=O)([N-]S(=O)(=O)C(F)(F)F)C(F)(F)F.c1ccc2cc(-n3cc[n+](Cc4cc(C[n+]5ccn(-c6ccc7ccccc7c6)c5)cc(C[n+]5ccn(-c6ccc7ccccc7c6)c5)c4)c3)ccc2c1
- activity coefficient (323 K): 0.164 ± 0.031
- activity coefficient (333 K): 0.173 ± 0.032
- activity coefficient (343 K): 0.198 ± 0.033

Structure (SMILES): C1CCCCC1 [cyclohexane] + O=S(=O)([N-]S(=O)(=O)C(F)(F)F)C(F)(F)F.O=S(=O)([N-]S(=O)(=O)C(F)(F)F)C(F)(F)F.O=S(=O)([N-]S(=O)(=O)C(F)(F)F)C(F)(F)F.c1ccc2cc(-n3cc[n+](Cc4cc(C[n+]5ccn(-c6ccc7ccccc7c6)c5)cc(C[n+]5ccn(-c6ccc7ccccc7c6)c5)c4)c3)ccc2c1
- activity coefficient (313 K): 11.7 ± 1.3
- activity coefficient (323 K): 9.16 ± 1
- activity coefficient (333 K): 8.09 ± 0.9
- activity coefficient (343 K): 6.25 ± 0.75

Structure (SMILES): O=C1CCCCC1 [cyclohexanone] + O=S(=O)([N-]S(=O)(=O)C(F)(F)F)C(F)(F)F.O=S(=O)([N-]S(=O)(=O)C(F)(F)F)C(F)(F)F.O=S(=O)([N-]S(=O)(=O)C(F)(F)F)C(F)(F)F.c1ccc2cc(-n3cc[n+](Cc4cc(C[n+]5ccn(-c6ccc7ccccc7c6)c5)cc(C[n+]5ccn(-c6ccc7ccccc7c6)c5)c4)c3)ccc2c1
- activity coefficient (313 K): 1 ± 0.1
- activity coefficient (323 K): 0.999 ± 0.1
- activity coefficient (333 K): 1 ± 0.1
- activity coefficient (343 K): 1 ± 0.1

Structure (SMILES): Cc1ccc(C)cc1 [1,4-dimethylbenzene] + O=S(=O)([N-]S(=O)(=O)C(F)(F)F)C(F)(F)F.O=S(=O)([N-]S(=O)(=O)C(F)(F)F)C(F)(F)F.O=S(=O)([N-]S(=O)(=O)C(F)(F)F)C(F)(F)F.c1ccc2cc(-n3cc[n+](Cc4cc(C[n+]5ccn(-c6ccc7ccccc7c6)c5)cc(C[n+]5ccn(-c6ccc7ccccc7c6)c5)c4)c3)ccc2c1
- activity coefficient (313 K): 4.47 ± 0.56
- activity coefficient (323 K): 2.94 ± 0.39
- activity coefficient (333 K): 2.09 ± 0.26
- activity coefficient (343 K): 1.51 ± 0.2

Structure (SMILES): CC#N [acetonitrile] + O=S(=O)([N-]S(=O)(=O)C(F)(F)F)C(F)(F)F.O=S(=O)([N-]S(=O)(=O)C(F)(F)F)C(F)(F)F.O=S(=O)([N-]S(=O)(=O)C(F)(F)F)C(F)(F)F.c1ccc2cc(-n3cc[n+](Cc4cc(C[n+]5ccn(-c6ccc7ccccc7c6)c5)cc(C[n+]5ccn(-c6ccc7ccccc7c6)c5)c4)c3)ccc2c1
- activity coefficient (313 K): 0.263 ± 0.038
- activity coefficient (323 K): 0.217 ± 0.035
- activity coefficient (333 K): 0.189 ± 0.033
- activity coefficient (343 K): 0.181 ± 0.032

Structure (SMILES): CCCCCCCC [octane] + O=S(=O)([N-]S(=O)(=O)C(F)(F)F)C(F)(F)F.O=S(=O)([N-]S(=O)(=O)C(F)(F)F)C(F)(F)F.O=S(=O)([N-]S(=O)(=O)C(F)(F)F)C(F)(F)F.c1ccc2cc(-n3cc[n+](Cc4cc(C[n+]5ccn(-c6ccc7ccccc7c6)c5)cc(C[n+]5ccn(-c6ccc7ccccc7c6)c5)c4)c3)ccc2c1
- activity coefficient (313 K): 28.4 ± 3.5
- activity coefficient (323 K): 19.4 ± 2.5
- activity coefficient (333 K): 14.1 ± 1.8
- activity coefficient (343 K): 9.43 ± 1.4

Structure (SMILES): Cc1ccccc1C [1,2-dimethylbenzene] + O=S(=O)([N-]S(=O)(=O)C(F)(F)F)C(F)(F)F.O=S(=O)([N-]S(=O)(=O)C(F)(F)F)C(F)(F)F.O=S(=O)([N-]S(=O)(=O)C(F)(F)F)C(F)(F)F.c1ccc2cc(-n3cc[n+](Cc4cc(C[n+]5ccn(-c6ccc7ccccc7c6)c5)cc(C[n+]5ccn(-c6ccc7ccccc7c6)c5)c4)c3)ccc2c1
- activity coefficient (313 K): 3.35 ± 0.41
- activity coefficient (323 K): 2.25 ± 0.3
- activity coefficient (333 K): 1.54 ± 0.2
- activity coefficient (343 K): 1.04 ± 0.14

Structure (SMILES): c1ccccc1 [benzene] + O=S(=O)([N-]S(=O)(=O)C(F)(F)F)C(F)(F)F.O=S(=O)([N-]S(=O)(=O)C(F)(F)F)C(F)(F)F.O=S(=O)([N-]S(=O)(=O)C(F)(F)F)C(F)(F)F.c1ccc2cc(-n3cc[n+](Cc4cc(C[n+]5ccn(-c6ccc7ccccc7c6)c5)cc(C[n+]5ccn(-c6ccc7ccccc7c6)c5)c4)c3)ccc2c1
- activity coefficient (313 K): 2.58 ± 0.3
- activity coefficient (323 K): 1.88 ± 0.23
- activity coefficient (333 K): 1.35 ± 0.17
- activity coefficient (343 K): 0.994 ± 0.12

Structure (SMILES): CCOC(C)=O [ethyl acetate] + O=S(=O)([N-]S(=O)(=O)C(F)(F)F)C(F)(F)F.O=S(=O)([N-]S(=O)(=O)C(F)(F)F)C(F)(F)F.O=S(=O)([N-]S(=O)(=O)C(F)(F)F)C(F)(F)F.c1ccc2cc(-n3cc[n+](Cc4cc(C[n+]5ccn(-c6ccc7ccccc7c6)c5)cc(C[n+]5ccn(-c6ccc7ccccc7c6)c5)c4)c3)ccc2c1
- activity coefficient (313 K): 1.02 ± 0.11
- activity coefficient (323 K): 0.776 ± 0.093
- activity coefficient (333 K): 0.544 ± 0.068
- activity coefficient (343 K): 0.443 ± 0.054

Structure (SMILES): O=C1CCCC1 [cyclopentanone] + O=S(=O)([N-]S(=O)(=O)C(F)(F)F)C(F)(F)F.O=S(=O)([N-]S(=O)(=O)C(F)(F)F)C(F)(F)F.O=S(=O)([N-]S(=O)(=O)C(F)(F)F)C(F)(F)F.c1ccc2cc(-n3cc[n+](Cc4cc(C[n+]5ccn(-c6ccc7ccccc7c6)c5)cc(C[n+]5ccn(-c6ccc7ccccc7c6)c5)c4)c3)ccc2c1
- activity coefficient (313 K): 0.303 ± 0.039
- activity coefficient (323 K): 0.296 ± 0.04
- activity coefficient (333 K): 0.22 ± 0.035
- activity coefficient (343 K): 0.211 ± 0.034

Structure (SMILES): CC(C)O [propan-2-ol] + O=S(=O)([N-]S(=O)(=O)C(F)(F)F)C(F)(F)F.O=S(=O)([N-]S(=O)(=O)C(F)(F)F)C(F)(F)F.O=S(=O)([N-]S(=O)(=O)C(F)(F)F)C(F)(F)F.c1ccc2cc(-n3cc[n+](Cc4cc(C[n+]5ccn(-c6ccc7ccccc7c6)c5)cc(C[n+]5ccn(-c6ccc7ccccc7c6)c5)c4)c3)ccc2c1
- activity coefficient (313 K): 1.89 ± 0.24
- activity coefficient (323 K): 1.24 ± 0.16
- activity coefficient (333 K): 0.965 ± 0.11
- activity coefficient (343 K): 0.693 ± 0.091

Structure (SMILES): O=Cc1ccccc1 [benzaldehyde] + O=S(=O)([N-]S(=O)(=O)C(F)(F)F)C(F)(F)F.O=S(=O)([N-]S(=O)(=O)C(F)(F)F)C(F)(F)F.O=S(=O)([N-]S(=O)(=O)C(F)(F)F)C(F)(F)F.c1ccc2cc(-n3cc[n+](Cc4cc(C[n+]5ccn(-c6ccc7ccccc7c6)c5)cc(C[n+]5ccn(-c6ccc7ccccc7c6)c5)c4)c3)ccc2c1
- activity coefficient (313 K): 1 ± 0.1
- activity coefficient (323 K): 0.999 ± 0.1
- activity coefficient (333 K): 1 ± 0.1
- activity coefficient (343 K): 1 ± 0.1

Structure (SMILES): C1COCCO1 [1,4-dioxane] + O=S(=O)([N-]S(=O)(=O)C(F)(F)F)C(F)(F)F.O=S(=O)([N-]S(=O)(=O)C(F)(F)F)C(F)(F)F.O=S(=O)([N-]S(=O)(=O)C(F)(F)F)C(F)(F)F.c1ccc2cc(-n3cc[n+](Cc4cc(C[n+]5ccn(-c6ccc7ccccc7c6)c5)cc(C[n+]5ccn(-c6ccc7ccccc7c6)c5)c4)c3)ccc2c1
- activity coefficient (313 K): 0.481 ± 0.06
- activity coefficient (323 K): 0.34 ± 0.047
- activity coefficient (333 K): 0.276 ± 0.038
- activity coefficient (343 K): 0.262 ± 0.037

Structure (SMILES): ClCCCl [1,2-dichloroethane] + O=S(=O)([N-]S(=O)(=O)C(F)(F)F)C(F)(F)F.O=S(=O)([N-]S(=O)(=O)C(F)(F)F)C(F)(F)F.O=S(=O)([N-]S(=O)(=O)C(F)(F)F)C(F)(F)F.c1ccc2cc(-n3cc[n+](Cc4cc(C[n+]5ccn(-c6ccc7ccccc7c6)c5)cc(C[n+]5ccn(-c6ccc7ccccc7c6)c5)c4)c3)ccc2c1
- activity coefficient (313 K): 0.758 ± 0.079
- activity coefficient (323 K): 0.738 ± 0.077
- activity coefficient (333 K): 0.677 ± 0.071
- activity coefficient (343 K): 0.679 ± 0.071

Structure (SMILES): CCCC(C)=O [pentan-2-one] + O=S(=O)([N-]S(=O)(=O)C(F)(F)F)C(F)(F)F.O=S(=O)([N-]S(=O)(=O)C(F)(F)F)C(F)(F)F.O=S(=O)([N-]S(=O)(=O)C(F)(F)F)C(F)(F)F.c1ccc2cc(-n3cc[n+](Cc4cc(C[n+]5ccn(-c6ccc7ccccc7c6)c5)cc(C[n+]5ccn(-c6ccc7ccccc7c6)c5)c4)c3)ccc2c1
- activity coefficient (313 K): 0.54 ± 0.062
- activity coefficient (323 K): 0.441 ± 0.053
- activity coefficient (333 K): 0.365 ± 0.045
- activity coefficient (343 K): 0.341 ± 0.042

Structure (SMILES): Cc1cccc(C)c1 [1,3-dimethylbenzene] + O=S(=O)([N-]S(=O)(=O)C(F)(F)F)C(F)(F)F.O=S(=O)([N-]S(=O)(=O)C(F)(F)F)C(F)(F)F.O=S(=O)([N-]S(=O)(=O)C(F)(F)F)C(F)(F)F.c1ccc2cc(-n3cc[n+](Cc4cc(C[n+]5ccn(-c6ccc7ccccc7c6)c5)cc(C[n+]5ccn(-c6ccc7ccccc7c6)c5)c4)c3)ccc2c1
- activity coefficient (313 K): 3.42 ± 0.42
- activity coefficient (323 K): 2.31 ± 0.31
- activity coefficient (333 K): 1.52 ± 0.19
- activity coefficient (343 K): 1.26 ± 0.14

Structure (SMILES): CCCO [propan-1-ol] + O=S(=O)([N-]S(=O)(=O)C(F)(F)F)C(F)(F)F.O=S(=O)([N-]S(=O)(=O)C(F)(F)F)C(F)(F)F.O=S(=O)([N-]S(=O)(=O)C(F)(F)F)C(F)(F)F.c1ccc2cc(-n3cc[n+](Cc4cc(C[n+]5ccn(-c6ccc7ccccc7c6)c5)cc(C[n+]5ccn(-c6ccc7ccccc7c6)c5)c4)c3)ccc2c1
- activity coefficient (313 K): 1.4 ± 0.16
- activity coefficient (323 K): 1.1 ± 0.13
- activity coefficient (333 K): 0.842 ± 0.094
- activity coefficient (343 K): 0.73 ± 0.079
